One assay deals with HBsAg. Put plainly: HBsAg assay (CLIA of secreted HBsAg in HepG2.2.15 culture supernatant). It is filed as cell-based, HBV. The conditions noted are these: Hepatitis B virus. On the procedure: (§1) HepG2.2.15 cells (Acs et al. Proc Natl Acad Sci USA, 84, (1987), 4641-4), a constitutively HBV-expressing cell line were cultured in DMEM+Glutamax-I medium (Invitrogen, Carlsbad, Calif., USA), supplemented with 10% fetal bovine serum (Invitrogen) and G418 (Invitrogen) at a final concentration of 200 mg/L and maintained in 5% CO2 at 37° C.
HepG2.2.15 cells were seeded in duplicate into white, 96-well plates at 1.5×10^4 cells/well. The cells were treated with a three-fold serial dilution series of the compounds in DMSO. The final DMSO concentration in all wells was 1% and DMSO was used as no drug control.
The HBsAg chemiluminescence immunoassay (CLIA) kit (Autobio Diagnostics Co., Zhengzhou, China, Catalog number: CL0310-2) was used to measure the levels of secreted HBV antigens semi-quantitatively. For the detection 50 μL/well culture supernatant was used and HBsAg was quantified using HBsAg chemiluminescence immunoassay (CLIA) kit (Autobio Diagnostics Co., Zhengzhou, China, Catalog number: CL0310-2), 50 μL of the supernatant was transferred to the CLIA assay plate and 50 μL of enzyme conjugate reagent was added into each well. The plates were sealed and gently agitated for 1 hour at room temperature. The supernatant-enzyme-mixture was discarded and wells were washed 6 times with 300 μL of PBS. The residual liquid was removed by plating the CLIA plate right side down on absorbent tissue paper. 25 μL of substrates A and B were added to each well. Luminance was measured using a luminometer (Mithras LB 940 Multimode Microplate Reader) after 10 minutes incubation. Dose-response curves were generated and the IC50 value was extrapolated by using the E-WorkBook Suite (ID Business Solutions Ltd., Guildford, UK). The IC50 was defined as the compound concentration at which HBsAg secretion was reduced by 50% compared to the no drug control.
The compounds according to formula I were tested for their capacity to inhibit HBsAg as described herein.

A further assay relates to HBV DNA. Briefly: HBV DNA assay (real-time qPCR/TaqMan of extracellular HBV DNA, HepG2.2.15 cells). It is filed as cell-based. As to conditions: Hepatitis B virus, 144 h; Anti HBV DNA production activity in HepG2.2.15 cells, supernatant, six days after treatment. On the procedure:
as §1
The assay employs real-time qPCR (TaqMan) to directly measure extracellular HBV DNA copy number in the cell supernatant. HepG2.2.15 cells were plated in 96-well microtiter plates before treatment with complete medium (DMEM, Glutamax, 10% FBS, 1% Penicillin/Streptomycin, 250 μg/mL Genetycin, final DMSO concentration is 1%). Only the interior wells were utilized to reduce “edge effects” observed during cell culture, the exterior wells were filled with complete medium to help minimize sample evaporation. The HepG2.2.15 cells were treated 1 h later with various concentrations of a test compound in duplicate (top concentration used at 5 μM, 2 μM or 0.5 μM according to the HBsAg IC50 observed, with 1/3 successive dilutions (total of 10 dilutions). Six days following the initial administration of the test compound, the cell culture supernatant was collected; DNA extraction was performed by automated system (Magnapure) and then used in a real-time qPCR/TaqMan assay to determine HBV DNA copy numbers. Antiviral activity was calculated from the reduction in HBV DNA levels (IC50). The compounds of the present invention were tested for their capacity to inhibit HBV DNA as described herein.
For orientation: Quantitative PCR measures a nucleic acid by following its amplification.

As usually defined, the IC50 is the concentration that gives 50% inhibition. The low end stands for greater potency in that assay, the high end for weaker potency in that assay. With `CC1c2cnc(-c3cscn3)nc2CCN1c1cc(F)nc(N2CCN(S(C)(=O)=O)CC2)c1` (stereo not drawn) [Example 20, 4-[6-[2-fluoro-6-(4-methylsulfonylpiperazin-1-yl)-4-pyridyl]-5-methyl-7,8-dihydro-5H-pyrido[4,3-d]pyrimidin-2-yl]thiazole], the IC50 amounted to 13 nM in the assay with HBsAg and 20.3 nM in the assay with HBV DNA.

In the case of `COc1cc(F)nc(N2CCc3nc(-c4ncc[nH]4)ncc3C2C)c1` (stereo not drawn) [Example 26, 6-(6-Fluoro-4-methoxy-2-pyridyl)-2-(1H-imidazol-2-yl)-5-methyl-7,8-dihydro-5H-pyrido[4,3-d]pyrimidine], the concentration for half-maximal inhibition (IC50) worked out at 31 nM in the assay with HBsAg and 5.7 nM with HBV DNA.

Regarding `COc1cc(F)nc(N2CCc3nc(-c4ncn[nH]4)ncc3C2C)c1` (stereo not drawn) [Example 43, 6-(6-Fluoro-4-methoxy-2-pyridyl)-5-methyl-2-(1H-1,2,4-triazol-5-yl)-7,8-dihydro-5H-pyrido[4,3-d]pyrimidine], the IC50 worked out at 8 nM in the assay on HBsAg and 1.7 nM in the assay with HBV DNA.

For the origin of these results see patent publication US10968218B2, “Tetrahydropyridopyrimidines for the treatment and prophylaxis of hepatitis B virus infection” (Hoffmann-La Roche Inc., priority 2016, dated 2021).
